The subject of series [1] is primary mouse cortical neurons. Put plainly: AβO-induced neuronal cell cycle re-entry (CCR), cyclin D1/NeuN/MAP2 triple immunofluorescence. Set-up: induction of CCR in primary neuron cultures: dose or concentration left out as unconfirmed. In kind it is cell-based. Here is the method:
Cortical neuron cultures derived from E17/18 wild type C57/BL6 mouse embryos prepared and maintained as described previously. Cultures were maintained for 16-18 days prior to experimental manipulations.
20 μl aliquots were stored at −80° C. until ready to use. To prepare oligomers, an aliquot was dried in a speed vac for 3 hours, solubilized in 1 mM in dimethyl sulfoxide (Sigma, D2650-5X5ML), placed in a water bath sonicator for 5 minutes, and then supplemented with Neurobasal medium (GIBCO/Life Technologies, 21103-049) to yield a final peptide concentration of 100 μM. The solution was then placed on an orbiting rocker at 4° C. for 48 hours, after which it was centrifuged at 14,000×g in a tabletop microcentrifuge for 15 minutes to pellet large aggregates.
All steps were performed at room temperature unless indicated otherwise. Primary mouse cortical neurons grown on #1.5 thickness, 12 mm round glass coverslips were rinsed once with ice-cold phosphate buffered saline (PBS), and then were fixed in 4% paraformaldehyde in PBS for 12 minutes. Following fixation, the cells were rinsed 3 times for 5 minutes each with ice cold PBS, permeabilized for 15 minutes with PBS containing 0.2% Triton X-100 (Fisher, 9002-93-1), and rinsed 3 times for 5 minutes each with PBS. Next, the cells were blocked with PBST (PBS supplemented with 2% bovine serum albumin (BSA; Roche, 03116956001); and 0.1% Tween 20 (Fisher, 9005-64-5) for 1 hour, after which they were labeled overnight with primary antibodies followed by secondary antibodies for 1 hour. Antibodies were diluted into 2% BSA in PBS, and after each antibody incubation step the cells were rinsed 3 times for 5 minutes each with PBS. Finally, the coverslips were rinsed with ultrapure water and mounted onto slides using Fluormount-G (Southern Biotech, 0100-01) containing 1% 1,4-diazabicyclo[2.2.2]octane (Sigma, D27802-25MG), an anti-quenching agent.
(§1) Cultured neurons and brain sections were imaged on either of two microscopes: 1) Nikon Eclipse Ti equipped with a Yokogawa CSU-X1 spinning disk head, 20×0.75 NA CFI Plan Apo, 40×1.3 NA CFI S Fluor and 60×1.4 NA Plan Apo objectives; 405 nm, 488 nm, 561 nm and 640 nm lasers; and a Hamamatsu Flash 4.0 scientific CMOS camera; or 2) EVOS FL imaging system (Invitrogen). Micrographs were captured using either Nikon Elements or EVOS software. CCR-positive cells were counted using the ImageJ cell counter plugin for brain sections (available at an NIH website), and were counted manually using the EVOS microscope for primary neuron cultures. For cultured neurons (FIGS. 1-4, S5 and S2), 4 biological replicates of >300 neurons were counted per condition per experiment.
To test the hypothesis that neuronal CCR is calcium-dependent we first treated primary mouse cortical neurons with BAPTA-AM, a cell-permeant chelator of intracellular calcium, beginning 30 minutes prior to addition of AβOs to the cultures.
Accordingly, primary neuron cultures were treated with MK-801, an NMDAR inhibitor that blocks calcium entry through the channel pore, beginning 30 minutes before AβOs were added. […] Otherwise identical experiments were performed using 6-cyano-7-nitroquinoxaline-2,3-dione (CNQX) to block plasma membrane AMPA receptors (FIG. 7), 2-aminoethoxydiphenyl borate (2-ABP) to block ER-associated IP3 receptors and TRP channels (FIG. 8), or dantrolene to inhibit ER-associated ryanodine receptors (FIG. 8).

A further series deals with CaMKII. Kind of series: phospho-activated versus total CaMKII by western blotting of AβO-treated cortical neurons. In kind it is cell-based, mouse. The following applies: 10 μM MK-801, 30 minute pre-treatment; 15 minutes after AβO addition. Here is the method: Samples were resolved on 12% SDS polyacrylamide gels, then transferred at 100 V for 1.75 hours onto 0.22 μm pore size nitrocellulose membranes using a Bio-Rad Mini-PROTEAN Tetra Electrophoresis Cell. Following transfer, blots were rinsed once in tris-buffered saline (TBS), blocked for 30-60 minutes in blocking buffer (LI-COR, 927-50000), sequentially incubated in primary antibodies overnight at 4° C. in antibody buffer (1:1 mix of blocking buffer, and TBST: TBS+0.1% Tween-20), then LI-COR infrared-labeled secondary antibodies for 30 minutes. Blots were rinsed 3 times for 5 minutes each using TBST after the primary antibody or TBS after the secondary antibody. Finally, membranes were scanned using a LI-COR Odyssey imaging station.
CaMKII is of particular interest, as it can be activated via calcium influx through NMDAR. We thus tested the hypothesis that AβO-mediated calcium influx through NMDAR activates CaMKII as a mediator of CCR. Again, we treated primary neurons with AβOs with or without a 30 minute MK-801 pre-treatment, and collected the cells at various time points from 0-2 hours after AβO stimulation for western blotting with antibodies to phospho-activated and total CaMKII. […] The AβO-mediated activation of CaMKII necessary for CCR [19] is therefore dependent upon calcium influx through NMDAR.
(A western blot detects proteins with antibodies after separation by electrophoresis.)

The subject of a further series is Tg2576 AD model mice. Kind of series: neuronal CCR in vivo, cyclin D1-positive cortical neurons in brain sections after memantine in drinking water. As to conditions: memantine ~30 mg/kg/day in drinking water from 3 weeks until 2 months of age. Also on record: species or system mouse. Here is the method: Brain tissue sections were obtained from mice that were transcardially perfused first with 10 ml of phosphate buffer (PB; 0.1 M sodium phosphate, pH 7.6), followed by 10 ml of 4% paraformaldehyde in PB at a flow rate of 1.5 ml/minute. Next, brains were removed and placed in 4% paraformaldehyde in PB for 24 hours, washed 3 times in PBS, incubated in 30% sucrose overnight, and flash frozen using dry ice. Frozen tissue was stored at −80° C. until ready for sectioning to 40 μm thickness on a Microm HM 505 E cryostat. […]
as §1, with “Micrographs were captured using either Nikon Elements or EVOS software.” left out, “experiment. […]” for “experiment.”

The conditions of series [2]: cited from earlier work.
[3] abbreviates: 10 μM, 30 minute pre-treatment, 16-18 hours AβOs.

Molecules are shown by their SMILES. Where a name gives a salt, the structure may show the parent alone.

`NCCOB(c1ccccc1)c1ccccc1` [2-ABP, 2-aminoethoxydiphenyl borate]: in series [1] (50 μM 2-APB to block IP3 receptors, 18 hours AβOs), the “AβO-induced neuronal CCR (cyclin D1-positive neurons)” value (shortened to “AβO-induced neuronal CCR”) is reported as “none of those inhibitors blocked CCR”. Regarding `CC(=O)OCOC(=O)CN(CC(=O)OCOC(C)=O)c1ccccc1OCCOc1ccccc1N(CC(=O)OCOC(C)=O)CC(=O)OCOC(C)=O` [BAPTA-AM, 1,2-Bis(2-aminophenoxy)ethane-N,N,N′,N′-tetraacetic acid tetrakis(acetoxymethyl ester)], the “AβO-induced neuronal CCR” value in series [1] (setting [3]) was “prevented”. On the same count and under the same terms, the value for `N#Cc1cc2c(cc1[N+](=O)[O-])=NC(=O)C(=O)N=2` [CNQX, 6-cyano-7-nitroquinoxaline-2,3-dione] was “none of those inhibitors blocked CCR”. Take `C[C@]12N[C@H](Cc3ccccc31)c1ccccc12` [MK-801, (1S,9R)-1-methyl-16-azatetracyclo[7.6.1.02,7.010,15]hexadeca-2,4,6,10,12,14-hexaene]: in series [1] (setting [3]), the “AβO-induced neuronal CCR” value is reported as “blocked the induction of CCR”. Besides, in the series on CaMKII, the “AβO-mediated transient activation of CaMKII (phosphorylated relative to total CaMKII)” value was “activation was prevented”. For the compound `CN[C@H](CC(=O)O)C(=O)O` [NMDA], the “induction of CCR in primary neuron cultures” value in series [1] (30 second shock of NMDA, no AβOs) is “induces CCR”. For the compound `O=C1CN(/N=C/c2ccc(-c3ccc([N+](=O)[O-])cc3)o2)C(O)=N1` [dantrolene], the “AβO-induced neuronal CCR” value in series [1] (20 μM dantrolene to block ryanodine receptors, 18 hours AβOs) is “none of those inhibitors blocked CCR”.

As for `CC12CC3CC(C)(C1)CC(N)(C3)C2` [memantine, 1-amino-3,5-dimethyladamantane hydrochloride], the “AβO-induced neuronal CCR” value in series [1] (setting [3]) is listed as “prevented AβOs from inducing neuronal CCR”. The “neuronal CCR along cortical regions (cyclin D1 immunoreactivity)” value is listed as “reduced to WT levels” in the series with Tg2576 AD model mice (Tg2576 mice (untreated 8.8%)) and 1.6% in the series on Tg2576 AD model mice (WT mice). For the same compound, the solubility in water entry in series [2] is “soluble in water”.

The record behind these values is patent US20210002650A1, “COMPOSITIONS AND METHODS FOR TREATING ALZHEIMER'S DISEASE” (University of Virginia Patent Foundation, priority 2019, published 2021).
